# Experiments:
# [1] = target: Mitogen-activated protein kinase 14 (Homo sapiens, UniProt Q16539); assay: Inhibition of human p38 MAPK alpha incubated for 1 hr by photometric method
# [2] = Metabolic stability in human liver microsomes assessed as parent compound remaining incubated for 120 mins; format: ADME, Microsome; settings: read-out: Stability
# [3] = Ratio of drug concentration in RjOrl:Swiss (CD-1) mouse brain to plasma at 10mg/kg, iv administered measured after 2 hrs by LC-MS/MS analysis; format: ADME, organism-based; settings: brain and plasma, read-out: BPR
# [4] = Cytotoxicity against Balb/c mouse splenocytes assessed as metabolic activity at 100 nM incubated for 24 hrs by MTT assay relative to LPS-stimulated splenocytes; format: toxicity, cell-based, Splenocyte; settings: read-out: Activity
# [5] = system: Splenocyte; assay: Cytotoxicity against Balb/c mouse splenocytes assessed as metabolic activity at 1 to 10 nM incubated for 24 hrs by MTT assay; format: toxicity, cell-based; settings: 0.01 µM, dose 1-10 nM
# [6] = system: Blood; assay: Antiinflammatory activity against LPS-stimulated C57BL/6 mouse whole blood assessed as reduction in TNF-alpha at 1 nM incubated for 24 hrs by ELISA based method; format: functional; parameters: scale not given: the % may be the effect or the level left
# [7] = Drug uptake in mouse C57BL/6 brain at 0.4 mg/kg,iv measured upto 240 mins by LC-MS/MS analysis; format: ADME, organism-based; settings: in vivo, 4 h
# [8] = Drug uptake in mouse C57BL/6 brain at 0.4 mg/kg,po measured upto 240 mins by LC-MS/MS analysis; format: ADME, organism-based; settings: in vivo, 4 h
# [9] = Drug uptake in RjOrl:Swiss (CD-1) mouse brain at 10 mg/kg, iv administered measured after 2 hrs by LC-MS/MS analysis; format: ADME, organism-based; settings: read-out: Ct
# Mitogen-activated protein kinase 14, sequence (Q16539 whole entry): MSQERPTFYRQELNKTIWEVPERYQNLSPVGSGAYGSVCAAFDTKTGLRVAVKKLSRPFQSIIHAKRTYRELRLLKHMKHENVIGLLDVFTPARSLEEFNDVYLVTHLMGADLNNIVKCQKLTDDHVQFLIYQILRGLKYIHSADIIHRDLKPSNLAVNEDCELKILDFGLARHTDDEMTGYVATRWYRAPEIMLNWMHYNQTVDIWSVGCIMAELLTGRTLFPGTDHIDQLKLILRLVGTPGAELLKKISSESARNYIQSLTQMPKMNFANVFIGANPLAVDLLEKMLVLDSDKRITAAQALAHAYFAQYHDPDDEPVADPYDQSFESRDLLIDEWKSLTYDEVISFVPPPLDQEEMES
SMILES,IC50 [1] [nM],further results
COC(=O)CC[C@H](NC(=O)c1ccc2c(c1)C(=O)c1ccc(Nc3ccc(F)cc3F)cc1CC2)C(=O)OC,1.2,
O=C(NCCc1c[nH]c2ccccc12)c1ccc2c(c1)C(=O)c1ccc(Nc3ccc(F)cc3F)cc1CC2,28,remaining at 2 h [2]: 71%
Nc1ccccc1Nc1ccc2c(c1)CCc1ccc(C(=O)NCCN3CCNCC3)cc1C2=O,18,
COC(=O)[C@@H](N)CNC(=O)c1ccc2c(c1)C(=O)c1ccc(Nc3ccc(F)cc3F)cc1CC2,5.4,remaining at 2 h [2]: 12%
O=C(NCCCc1ccccc1)c1ccc2c(c1)C(=O)c1ccc(Nc3ccc(F)cc3F)cc1CC2,50,
COC(=O)[C@H](CCSC)NC(=O)c1ccc2c(c1)C(=O)c1ccc(Nc3ccccc3N)cc1CC2,13,remaining at 2 h [2]: 0%
CN(CCc1ccccc1)C(=O)c1ccc2c(c1)C(=O)c1ccc(Nc3ccc(F)cc3F)cc1CC2,390,
N[C@@H](CCCCNC(=O)c1ccc2c(c1)C(=O)c1ccc(Nc3ccc(F)cc3F)cc1CC2)C(=O)O,3.5,Kp at 2 h [3]: 0.01
Nc1ccccc1Nc1ccc2c(c1)CCc1ccc(C(=O)NCCO)cc1C2=O,14,remaining at 2 h [2]: 99%
O=C(NCCc1ccc(O)cc1)c1ccc2c(c1)C(=O)c1ccc(Nc3ccc(F)cc3F)cc1CC2,7.8,
N[C@@H](CNC(=O)c1ccc2c(c1)C(=O)c1ccc(Nc3ccc(F)cc3F)cc1CC2)C(=O)O,,Kp at 2 h [3]: 0.003
COC(=O)[C@@H](N)CCCCNC(=O)c1ccc2c(c1)C(=O)c1ccc(Nc3ccccc3N)cc1CC2,12,
NC(=O)CCNC(=O)c1ccc2c(c1)C(=O)c1ccc(Nc3ccc(F)cc3F)cc1CC2,6.2,remaining at 2 h [2]: 95%
O=C(NC(CO)(CO)CO)c1ccc2c(c1)C(=O)c1ccc(Nc3ccc(F)cc3F)cc1CC2,3,"viability at 24 h, 0.1 µM [4]: 66%; Activity [5]: Non-Toxic; Activity [6]: 5%; Drug uptake [7]: Not Active; Drug uptake [8]: Not Active"
CC(NC(=O)c1ccc2c(c1)C(=O)c1ccc(Nc3ccc(F)cc3F)cc1CC2)C1CCCCC1 (centres undefined),22,
O=C(NC1(c2ccccc2)CC1)c1ccc2c(c1)C(=O)c1ccc(Nc3ccc(F)cc3F)cc1CC2,2.5,Kp at 2 h [3]: 0.51; concentration at 2 h [9]: 49 ng/g
NCCNC(=O)c1ccc2c(c1)C(=O)c1ccc(Nc3ccc(F)cc3F)cc1CC2,2.5,"viability at 24 h, 0.1 µM [4]: 66%; Activity [5]: Non-Toxic; Activity [6]: 5%; Drug uptake [7]: Not Active; Drug uptake [8]: Not Active"
O=C(NCC(F)(F)F)c1ccc2c(c1)C(=O)c1ccc(Nc3ccc(F)cc3F)cc1CC2,3.5,
O=C(NCCc1ccc(F)cc1)c1ccc2c(c1)C(=O)c1ccc(Nc3ccc(F)cc3F)cc1CC2,21,
Nc1ccccc1Nc1ccc2c(c1)CCc1ccc(C(=O)NCCCC[C@H](N)C(=O)O)cc1C2=O,17,
COC(=O)[C@@H](N)CCCCNC(=O)c1ccc2c(c1)C(=O)c1ccc(Nc3ccc(F)cc3F)cc1CC2,2.1,
Nc1ccccc1Nc1ccc2c(c1)CCc1ccc(C(=O)N[C@@H](CCC(=O)O)C(=O)O)cc1C2=O,27,
O=C(NCCc1c[nH]cn1)c1ccc2c(c1)C(=O)c1ccc(Nc3ccc(F)cc3F)cc1CC2,5.6,remaining at 2 h [2]: 95%
NC(=O)c1ccc2c(c1)C(=O)c1ccc(Nc3ccccc3N)cc1CC2,6.1,
NCCNC(=O)c1ccc2c(c1)C(=O)c1ccc(Nc3ccccc3N)cc1CC2,5.3,
O=C(NO)c1ccc2c(c1)C(=O)c1ccc(Nc3ccc(F)cc3F)cc1CC2,5.2,remaining at 2 h [2]: 13%
Nc1ccccc1Nc1ccc2c(c1)CCc1ccc(C(=O)NC(CO)CO)cc1C2=O,15,

SMILES,IC50 [1] [nM],further results
COC(=O)[C@H](C)NC(=O)c1ccc2c(c1)C(=O)c1ccc(Nc3ccc(F)cc3F)cc1CC2,3,remaining at 2 h [2]: 93%
O=C(NCCN1CCNCC1)c1ccc2c(c1)C(=O)c1ccc(Nc3ccc(F)cc3F)cc1CC2,1.3,remaining at 2 h [2]: 93%; Kp at 2 h [3]: 0.24
O=C(N[C@@H]1[C@@H](O)[C@H](O)[C@@H](CO)O[C@H]1O)c1ccc2c(c1)C(=O)c1ccc(Nc3ccc(F)cc3F)cc1CC2,5.2,Kp at 2 h [3]: 0.09; concentration at 2 h [9]: 5.9 ng/g
O=C(NCCc1cccs1)c1ccc2c(c1)C(=O)c1ccc(Nc3ccc(F)cc3F)cc1CC2,6.4,
O=C(O)CNC(=O)c1ccc2c(c1)C(=O)c1ccc(Nc3ccc(F)cc3F)cc1CC2,9.3,remaining at 2 h [2]: 93%; Kp at 2 h [3]: 0.13; concentration at 2 h [9]: 8.2 ng/g
CC(C)(C)OC(=O)N1CCN(CCNC(=O)c2ccc3c(c2)C(=O)c2ccc(Nc4ccccc4N)cc2CC3)CC1,1.9,
Nc1ccccc1Nc1ccc2c(c1)CCc1ccc(C(=O)NCC(O)CO)cc1C2=O (centres undefined),15,
CN(C)CCNC(=O)c1ccc2c(c1)C(=O)c1ccc(Nc3ccccc3N)cc1CC2,8.4,remaining at 2 h [2]: 50%; Kp at 2 h [3]: 0.59
COC(=O)CNC(=O)c1ccc2c(c1)C(=O)c1ccc(Nc3ccc(F)cc3F)cc1CC2,12,remaining at 2 h [2]: 0%
CCCCCCCCCCCCCCCCNC(=O)c1ccc2c(c1)C(=O)c1ccc(Nc3ccc(F)cc3F)cc1CC2,> 1000,
COC(=O)[C@H](CCSC)NC(=O)c1ccc2c(c1)C(=O)c1ccc(Nc3ccc(F)cc3F)cc1CC2,6.9,
CN(C)C(=O)c1ccc2c(c1)C(=O)c1ccc(Nc3ccc(F)cc3F)cc1CC2,95,
Nc1ccccc1Nc1ccc2c(c1)CCc1ccc(C(=O)NCCc3cnc[nH]3)cc1C2=O,26,
Nc1ccccc1Nc1ccc2c(c1)CCc1ccc(C(=O)NCCc3ccccc3)cc1C2=O,20,
O=C(NCCOCCO)c1ccc2c(c1)C(=O)c1ccc(Nc3ccc(F)cc3F)cc1CC2,10,"viability at 24 h, 0.1 µM [4]: 66%; Activity [5]: Non-Toxic; Activity [6]: 5%; Drug uptake [7]: Not Active; Drug uptake [8]: Not Active"
Nc1ccccc1Nc1ccc2c(c1)CCc1ccc(C(=O)NCCN3CCOCC3)cc1C2=O,18,remaining at 2 h [2]: < 38%; Kp at 2 h [3]: 0.08
CSCC[C@H](NC(=O)c1ccc2c(c1)C(=O)c1ccc(Nc3ccc(F)cc3F)cc1CC2)C(=O)O,11,Drug uptake [7]: Not Active; Drug uptake [8]: Not Active
CCCCCCCCNC(=O)c1ccc2c(c1)C(=O)c1ccc(Nc3ccc(F)cc3F)cc1CC2,390,
O=C(O)CC[C@H](NC(=O)c1ccc2c(c1)C(=O)c1ccc(Nc3ccc(F)cc3F)cc1CC2)C(=O)O,8,remaining at 2 h [2]: 93%
O=C1c2ccc(Nc3ccc(F)cc3F)cc2CCc2ccc(C(=O)N3CCCCC3)cc21,120,
O=C(NCCc1ccccc1)c1ccc2c(c1)C(=O)c1ccc(Nc3ccc(F)cc3F)cc1CC2,21,
COC(=O)[C@@H](N)CCNC(=O)c1ccc2c(c1)C(=O)c1ccc(Nc3ccc(F)cc3F)cc1CC2,2.3,"viability at 24 h, 0.1 µM [4]: 66%; remaining at 2 h [2]: 6%; Activity [5]: Non-Toxic; Activity [6]: 5%; Drug uptake [7]: Not Active; Drug uptake [8]: Not Active"
O=C(N[C@@H](Cc1ccccc1)C(=O)O)c1ccc2c(c1)C(=O)c1ccc(Nc3ccc(F)cc3F)cc1CC2,36,Kp at 2 h [3]: 0.31; concentration at 2 h [9]: 15 ng/g
COC(=O)[C@H](Cc1ccccc1)NC(=O)c1ccc2c(c1)C(=O)c1ccc(Nc3ccc(F)cc3F)cc1CC2,15,
O=C(NCCNCCO)c1ccc2c(c1)C(=O)c1ccc(Nc3ccc(F)cc3F)cc1CC2,1.7,Kp at 2 h [3]: 0.17
CC(C)(C)OC(=O)N1CCN(CCNC(=O)c2ccc3c(c2)C(=O)c2ccc(Nc4ccc(F)cc4F)cc2CC3)CC1,2.4,
COC(=O)CC[C@H](NC(=O)c1ccc2c(c1)C(=O)c1ccc(Nc3ccccc3N)cc1CC2)C(=O)OC,17,

# From ChEMBL document CHEMBL5042473 (J Med Chem, 2022)
